Test results: the NIST ThermoML archive (doi:10.1021/je201009c)

Assay: xn = mol fraction of the nth substance listed
Conditions: for surface tension liquid-gas: Capillary rise; for viscosity / mass density: 101 kPa, Liquid; for viscosity: Falling or rolling sphere viscometry; for mass density: Vibrating tube method

CC(=O)OCc1ccccc1 [benzyl ethanoate] + OCc1ccccc1
Conditions | mass density [kg/m3] | surface tension liquid-gas [mN/m] | viscosity [mPa·s]
293.15 K, x1 = 0.05 | 1046.29 | – | 5.782
293.15 K, x1 = 0.1001 | 1047.03 | 39.2 | 5.319
293.15 K, x1 = 0.1502 | 1047.73 | – | 4.905
293.15 K, x1 = 0.2001 | 1048.38 | 39.2 | 4.536
293.15 K, x1 = 0.25 | 1048.99 | – | 4.214
293.15 K, x1 = 0.3 | 1049.58 | 39.1 | 3.927
293.15 K, x1 = 0.3498 | 1050.15 | – | 3.678
293.15 K, x1 = 0.4001 | 1050.71 | 39 | 3.454
293.15 K, x1 = 0.45 | 1051.24 | – | 3.252
293.15 K, x1 = 0.5 | 1051.77 | 38.7 | 3.087
293.15 K, x1 = 0.5501 | 1052.26 | – | 2.93
293.15 K, x1 = 0.6001 | 1052.74 | 38.4 | 2.795
293.15 K, x1 = 0.65 | 1053.19 | – | 2.684
293.15 K, x1 = 0.6999 | 1053.64 | 38.1 | 2.589
293.15 K, x1 = 0.7502 | 1054.03 | – | 2.505
293.15 K, x1 = 0.8 | 1054.42 | 37.8 | 2.428
293.15 K, x1 = 0.85 | 1054.77 | – | 2.376
293.15 K, x1 = 0.9 | 1055.11 | 37.5 | 2.343
293.15 K, x1 = 0.95 | 1055.46 | – | 2.326
293.15 K, x1 = 1 | 1055.81 | 37.3 | 2.324
303.15 K, x1 = 0.05 | 1038.18 | – | 4.21
303.15 K, x1 = 0.1001 | 1038.83 | 38 | 3.894
303.15 K, x1 = 0.1502 | 1039.44 | – | 3.623
303.15 K, x1 = 0.2001 | 1040.01 | 37.9 | 3.378
303.15 K, x1 = 0.25 | 1040.58 | – | 3.165
303.15 K, x1 = 0.3 | 1041.11 | 37.8 | 2.972
303.15 K, x1 = 0.3498 | 1041.61 | – | 2.806
303.15 K, x1 = 0.4001 | 1042.1 | 37.5 | 2.662
303.15 K, x1 = 0.45 | 1042.57 | – | 2.535
303.15 K, x1 = 0.5 | 1043.01 | 37.1 | 2.432
303.15 K, x1 = 0.5501 | 1043.43 | – | 2.332
303.15 K, x1 = 0.6001 | 1043.84 | 36.7 | 2.234
303.15 K, x1 = 0.65 | 1044.24 | – | 2.171
303.15 K, x1 = 0.6999 | 1044.62 | 36.3 | 2.091
303.15 K, x1 = 0.7502 | 1044.99 | – | 2.035
303.15 K, x1 = 0.8 | 1045.35 | 36 | 1.985
303.15 K, x1 = 0.85 | 1045.7 | – | 1.941
303.15 K, x1 = 0.9 | 1046.05 | 35.8 | 1.902
303.15 K, x1 = 0.95 | 1046.4 | – | 1.867
303.15 K, x1 = 1 | 1046.74 | 35.6 | 1.836
313.15 K, x1 = 0.05 | 1030.21 | – | 3.18
313.15 K, x1 = 0.1001 | 1030.76 | 37 | 3.006
313.15 K, x1 = 0.1502 | 1031.27 | – | 2.848
313.15 K, x1 = 0.2001 | 1031.72 | 36.8 | 2.687
313.15 K, x1 = 0.25 | 1032.23 | – | 2.536
313.15 K, x1 = 0.3 | 1032.67 | 36.4 | 2.396
313.15 K, x1 = 0.3498 | 1033.08 | – | 2.265
313.15 K, x1 = 0.4001 | 1033.48 | 36 | 2.154
313.15 K, x1 = 0.45 | 1033.86 | – | 2.056
313.15 K, x1 = 0.5 | 1034.24 | 35.6 | 1.966
313.15 K, x1 = 0.5501 | 1034.6 | – | 1.903
313.15 K, x1 = 0.6001 | 1034.94 | 35.2 | 1.832
313.15 K, x1 = 0.65 | 1035.27 | – | 1.774
313.15 K, x1 = 0.6999 | 1035.57 | 34.8 | 1.728
313.15 K, x1 = 0.7502 | 1035.87 | – | 1.684
313.15 K, x1 = 0.8 | 1036.18 | 34.6 | 1.646
313.15 K, x1 = 0.85 | 1036.48 | – | 1.613
313.15 K, x1 = 0.9 | 1036.79 | 34.4 | 1.572
313.15 K, x1 = 0.95 | 1037.11 | – | 1.524
313.15 K, x1 = 1 | 1037.42 | 34.3 | 1.474
323.15 K, x1 = 0.05 | 1021.94 | – | 2.45
323.15 K, x1 = 0.1001 | 1022.36 | 36 | 2.349
323.15 K, x1 = 0.1502 | 1022.75 | – | 2.232
323.15 K, x1 = 0.2001 | 1023.12 | 35.7 | 2.125
323.15 K, x1 = 0.25 | 1023.48 | – | 2.021
323.15 K, x1 = 0.3 | 1023.81 | 35.2 | 1.925
323.15 K, x1 = 0.3498 | 1024.13 | – | 1.838
323.15 K, x1 = 0.4001 | 1024.44 | 34.8 | 1.756
323.15 K, x1 = 0.45 | 1024.73 | – | 1.683
323.15 K, x1 = 0.5 | 1025.02 | 34.3 | 1.62
323.15 K, x1 = 0.5501 | 1025.28 | – | 1.561
323.15 K, x1 = 0.6001 | 1025.53 | 33.9 | 1.521
323.15 K, x1 = 0.65 | 1025.79 | – | 1.482
323.15 K, x1 = 0.6999 | 1026.04 | 33.5 | 1.444
323.15 K, x1 = 0.7502 | 1026.28 | – | 1.41
323.15 K, x1 = 0.8 | 1026.52 | 33.4 | 1.387
323.15 K, x1 = 0.85 | 1026.77 | – | 1.361
323.15 K, x1 = 0.9 | 1027.01 | 33.3 | 1.339
323.15 K, x1 = 0.95 | 1027.26 | – | 1.308
323.15 K, x1 = 1 | 1027.51 | 33.2 | 1.256
